Records with an inconclusive call do not appear. Active and inactive are the calls of the source. The rule behind the calls is not given here.
Each molecule was assayed on Mycobacterium tuberculosis non-replicating, growth inhibition (assay: growth inhibition of non-replicating M. tuberculosis (AID 488890)).

SMILES	IC50
Cc1ccc2c(c1)c1c(n2CC(O)CNC2CCCCC2)CCCC1 (stereo unspecified)	16.7 µM (inactive)
COc1ccccc1-c1nnc(-c2ccc(C)cc2)o1	6.42 µM
COC(=O)c1ccc(COC(=O)CCS(=O)(=O)c2ccc(C)cc2)cc1	19 µM (inactive)
CC(C)[C@@H]1CC[C@@H](C)C[C@H]1OC(=O)C[n+]1cc(-c2ccc(Cl)cc2)n2c1CCCCC2	2.18 µM
O=C(CCS(=O)(=O)c1ccccc1)Nc1nnc(-c2ccco2)o1	7.69 µM
COc1cccc(COC(=O)CCNC(=O)c2ccc(Br)cc2)c1OC	15.6 µM (inactive)
CN(CC(=O)Nc1ccc(C#N)cc1)Cc1ccc(Cl)c(Cl)c1	12.9 µM (inactive)
O=c1c2c([N+](=O)[O-])cc([N+](=O)[O-])cc2sn1-c1ccc(Br)cc1	18.5 µM (inactive)
O=C(COc1ccc(Nc2ccccc2)cc1)OCC(=O)N1CCCCC1	6.24 µM
CN(C)CCCN(C(=O)CCc1ccccc1)c1nc2ccc(Cl)cc2s1	12.7 µM (inactive)
O=C(Nc1ccc(Cc2ccncc2)cc1)c1ccc([N+](=O)[O-])o1	1.74 µM
CCOC(=O)c1sc2nc(CSc3ccccc3)nc(NCCN(C)C)c2c1C	14.9 µM (inactive)
CC(C)CNc1nc(=S)nc(N(C)C)[nH]1	11.5 µM (inactive)
CC(C)CN(Cc1c(O)ccc2ccccc12)CC(C)C	20.4 µM (inactive)
O=C(CCc1ccccc1)NC1C2CC3CC(C2)CC1C3 (stereo unspecified)	4.71 µM
Cc1ccccc1NC(=O)c1ccc([N+](=O)[O-])o1	7.05 µM
O=C(COc1ccccc1)Nc1ccc(F)cc1	8.5 µM
O=C(NN=C1C2CC3CC1CC(Cl)(C3)C2)c1cccs1	23.7 µM (inactive)
COc1cccc(COC(=O)CCNC(=O)c2ccc(Cl)cc2)c1OC	11.8 µM (inactive)
CCOC(=O)Nc1ccc2c(c1)N(C(=O)CCCl)c1ccccc1[S@]2=O	3.68 µM
COc1cc(CNC2CCCC2)cc(Cl)c1OCc1ccc(F)cc1	17.5 µM (inactive)

SMILES	IC50
COC(=O)c1ccccc1NC(=O)C1CC(c2ccc(F)cc2)=NO1 (stereo unspecified)	10.2 µM (inactive)
CCCCCCOc1ccc(C(=O)O)cc1C#N	42.7 µM (inactive)
Cc1cc(C)n(-c2ccc3cccc(NS(C)(=O)=O)c3n2)n1	4.85 µM
Oc1c(Br)cc(Br)cc1/C=N/c1nccs1	21.2 µM (inactive)
O=C(NC1CCCCC1)c1nc2c(nnn2Cc2ccccc2Cl)c(=O)[nH]1	3.72 µM
O=C(N/N=C/c1ccc([N+](=O)[O-])o1)c1cc2ccccc2o1	0.46 µM
CC(C)(C)c1ccc(C(=O)N2CCCC2)s1	1.66 µM
COc1cc(CNCCc2c[nH]c3ccccc23)ccc1OCc1ccc(F)cc1	11.5 µM (inactive)
Cc1c(C(=O)NNC(=O)c2csc(N3CCOCC3)n2)oc2ccccc12	7.63 µM
CC(=O)c1ccc(Sc2nnnn2-c2ccccc2)c([N+](=O)[O-])c1	19.4 µM (inactive)
O=C(N/N=C/c1ccc([N+](=O)[O-])s1)c1cccnc1	4.48 µM
O=C(COC(=O)Cc1ccc(Br)cc1)Nc1ccc(N2CCOCC2)cc1	39.1 µM (inactive)
Clc1ccc(SCCCCn2ccnc2)cc1	4.89 µM
CC(=O)c1ccc(NC(=O)C(Cc2ccccc2)n2cccc2)cc1 (stereo unspecified)	12.5 µM (inactive)
COc1ccc(/C=N/Nc2cc(C)nc(-n3nc(C)cc3C)n2)c(OC)c1	3.3 µM
Cc1ccc(-n2sc3ccccc3c2=O)cc1	14.3 µM (inactive)
CCOC(=O)C1=C(c2ccccc2)NC(N)=NC1c1ccc(OCc2ccc(C(=O)OC)cc2)cc1 (stereo unspecified)	5.85 µM
O=C1CSC(=S)N1Cc1cccnc1	6.18 µM
COc1cc(/C=C2\C(=O)N(c3ccc(S(N)(=O)=O)cc3)N=C2C)ccc1OC(=O)c1ccco1	7.44 µM
O=[N+]([O-])c1ccc(-n2nnnc2-c2ccccc2)c([N+](=O)[O-])c1	6.37 µM
CC(=O)Oc1ccc(N(C(C)=O)S(=O)(=O)c2cccs2)c2ccccc12	11.6 µM (inactive)

SMILES	IC50
O=C1CCCC(O)=C1C=Nc1ccc2c(c1)oc1ccccc12	8.18 µM
O=C(COC(=O)c1ccccc1)NCc1cccs1	37.4 µM (inactive)
O=C(Nc1ccn(Cc2ccccc2)n1)c1ccc(F)cc1	14.8 µM (inactive)
Cn1c(NC(=O)c2ccccc2)nc2ccccc21	2.7 µM
O=C(NCc1cccs1)c1ccc([N+](=O)[O-])cc1	2.84 µM
O=C(Oc1cccc2cccnc12)c1cccc(-n2cnnn2)c1	22.9 µM (inactive)
O=C(Oc1cccc2cccnc12)c1cccc([N+](=O)[O-])c1	3 µM
O=c1c2cc(Cl)ccc2oc2nc3n(c(=O)c12)CCCS3	3 µM
CN(C(=O)COC(=O)c1ccc([N+](=O)[O-])cc1Cl)C1CCCCC1	5.88 µM
CC(=O)c1ccc(C(=O)Nc2nnc(-c3ccc(Cl)cc3)o2)cc1	4.03 µM
Cc1cccc2cc(C#N)c(NCCCn3ccnc3)nc12	23.3 µM (inactive)
Cc1n[nH]c(=S)n1/N=C/c1ccc(OCc2ccc(Cl)cc2Cl)cc1	37.5 µM (inactive)
CCOc1ccc(C(=O)CCN2CCCCCC2)cc1	2.44 µM
O=C(Nc1nc2c(F)cc(F)cc2s1)c1ccccn1	2.12 µM
O=C(NNC(=O)C12CC3CC(CC(C3)C1)C2)c1cnccn1	32.2 µM (inactive)
CCCc1cc(C(=O)Nc2cccc(C(C)=O)c2)no1	10.2 µM (inactive)
COc1cccc2cc(C(=O)NCc3ccc(F)cc3)c(=N)oc12	8.67 µM
O=C(Nc1cccc(Cl)c1N1CCCC1)c1ccc([N+](=O)[O-])o1	12 µM (inactive)
COC(=O)COc1ccc2c(=O)c(-c3ccccc3OC)coc2c1	7.87 µM
O=C(OCC#CCSc1nnc(-c2ccccc2)o1)c1ccco1	1.44 µM
Cc1ccc(NC(=O)CN(C)CC(=O)Nc2ccc(F)c(Cl)c2)cc1	26.5 µM (inactive)

SMILES	IC50
O=C(CCC1CCCC1)c1c(O)c2ccccc2oc1=O	1.93 µM
C#CCSc1nnc(-c2ccc([N+](=O)[O-])cc2)o1	< 0.1 µM
Cc1ccnc(-n2sc3ccccc3c2=O)n1	25.6 µM (inactive)
Cc1cc(OCCCn2ccnc2)ccc1C(C)C	9.17 µM
CN1C(=O)CC(N2CCC(c3nc4ccccc4s3)CC2)C1=O (stereo unspecified)	32.6 µM (inactive)
O=C(Nc1ccc([N+](=O)[O-])cc1)C1COc2ccccc2O1 (stereo unspecified)	10.2 µM (inactive)
CCc1ccc(/C=N/NC(=O)c2ccccn2)cc1	24.8 µM (inactive)
Cc1nn2c(NCCN(C)C)c3c(nc2c1-c1ccccc1)CCCC3	5.07 µM
Cc1[nH]nc2c1C(c1ccc(OC(=O)c3ccco3)cc1)C(C#N)=C(N)O2 (stereo unspecified)	6.69 µM
CCOc1ccc(C(=O)C(CN2CCOCC2)c2ccccc2)cc1 (stereo unspecified)	3.62 µM
CCCN1C(=O)S/C(=C\c2ccc(N3CCOCC3)o2)C1=O	25.2 µM (inactive)
Cc1c([N+](=O)[O-])cnc(Sc2ccccc2)c1[N+](=O)[O-]	6.43 µM
CC(Cc1cccs1)NC(=O)c1cccc(Cl)c1 (stereo unspecified)	8.14 µM
CN1c2ccsc2/C(=N/Nc2ccccc2)CS1(=O)=O	0.29 µM
CCCOc1ccc(C(=O)C(CN2CCCC2)c2ccccc2)cc1 (stereo unspecified)	3.82 µM
COc1cc2[nH]c(Cl)c([N+](=O)[O-])c2cc1OC	14.1 µM (inactive)
O=C(COC(=O)c1cccs1)NCCC1=CCCCC1	14.1 µM (inactive)
COc1ccc2cc(C(=O)NCc3ccccc3CN3CCCC3)ccc2c1	17.7 µM (inactive)

— PubChem BioAssay AID488890 (Southern Research Specialized Biocontainment Screening …, 2010)
